# Assay results taken from patent publication EP1006112A1, “3-Hydroxy-2(1H)-pyridinone or 3-hydroxy-4(1H)-pyridinone derivatives useful as reactive oxygen species (ROS) scavengers” (Cerebrus Pharmaceuticals Limited, priority 1998, dated 2000).
# Where a name gives a salt, the structure may show the parent alone.
# Experiments:
# [1] = system: cerebellar granule cell (CGC) cultures; assay: Iodoacetate induced cell toxicity in culture (cell death, MTT-reductase activity); format: cell-based; conditions: protection of CGC after 30-µM IAA for 30 min (with 10-µM MK-801), 24 hour incubation with test compound
# Experimental: After 6-8 days in culture, cerebellar granule cell (CGC) cultures in 96-well plates (250,000 cells per well) were prepared for hypoglycaemia. lodoacetate (IAA) was made up in a balanced salt solution (BSS) (NaCl, 154.0-mM; KCl, 5.6-mM; MgCl2, 1.0-mM; CaCl2, 2.5-mM; N-[2-hydroxyethyl]piperazine-N'-[2-ethanesulfonic acid] (HEPES), 10.0-mM; D-glucose, 5.6-mM; pH 7.4) and any neuroprotective agents were made up in pre-warmed tissue culture media and allowed to equilibrate in a controlled environment (5 % CO2, 95 % air). The assay was initiated by aspiration of the maintenance media, which was replaced by either BSS (control) or 30-µM IAA in BSS, both solutions containing 10-µM of the NMDA receptor antagonist MK-801. The exposure to IAA was for 30 min only at 37 °C, after which time the BSS was aspirated and replaced with fresh, pre-equilibriated maintenance media containing various concentrations of test compound. All conditions were performed at least in duplicate in each 96 well plate. The final volume for each well was always 200 µL. Following a 24 hour incubation, visual inspection of the cells was followed by quantification of neuronal cell death by measuring 3-[4,5-dimethylthiazol-2-yl]-2,5-diphenyltetrazolium bromide (MTT)-reductase activity as described previously (Malcolm et al., J. Neurochem. 1996, 66, 2350-2360).
# [2] = system: Lipid peroxidation in rat brain homogenates; assay: Lipid peroxidation assay (ascorbic acid-induced, TBA/MDA readout); format: biochemical; conditions: concentration required to inhibit lipid peroxidation by 50%; rat cortex preparation, 500-µM L-ascorbic acid, 37 °C, 30 min
# Experimental: Lipid peroxidation in rat brain homogenates is a general procedure used to measure the antioxidant capacity of molecules in a biological environment (Das N.P. and Ratty A.K., Biochem. Med. Metab. Biol, 1987, 37, 256-264).
# Rat cortex was homogenised in 20 vols. of ice cold 0.32-M sucrose and centrifuged at 1,000 g for 10 min. The pellet was discarded whilst the resulting supernatant was centrifuged at 15,000 g for 20 min at 4 °C to yield p2 pellets. The pellet was re-suspended in ice-cold 50.0-mM phosphate buffer and centrifuged at 30,000 g for 20 min at 4 °C. The pellet was re-suspended in 30 vols. of 50.0-mM phosphate buffer and used immediately in the assay.
# Assays contained 500-µM L-ascorbic acid to induce lipid peroxidation, plus various concentrations of test compound, with the tissue preparation in a total volume of 500 µL. This was incubated at 37 °C for 30 min. Lipid peroxidation was measured by adding to the reaction mixture, 300 µL 40 % (w/v) trichloroacetic acid, 150 µL 5.0-M HCl and 300 µL 2 % (w/v) 2-thiobarbituric acid (TBA). […] The pink colour of the supernatant was assessed spectrophotometrically at a wavelength of 532 nm. The amount of malondialdehyde (MDA) in the samples was calculated using a standard curve prepared with malondialdehyde tetrabutylammonium salt (Das, N.P. and Ratty, A.K. Biochem. Med. Metab. Biol. (1987), 37, 256-264). […]
IC50 [2] [µM],Structure (SMILES),EC50 [1] [µM]
1.5,"COc1ccc2[nH]cc(CCNC(=O)CCn3ccc(=O)c(O)c3C)c2c1 [Example 1, 3-(1,4-Dihydro-3-hydroxy-2-methyl-4-oxo-1-pyridinyl)-N-(2-(5-methoxy-3-indolyl)ethyl)propanamide mesylate]",4.9
2,"COc1ccc2[nH]cc(CCn3ccc(=O)c(O)c3C)c2c1 [Example 2, 3-Hydroxy-1-(2-(5-methoxy-3-indolyl)ethyl)-2-methyl-4(1H)-pyridinone]",11.9
